Experimental data as given in article PMC6191125, “Peptidoglycan potentiates the membrane disrupting effect of the carboxyamidated form of DMS-DA6, a Gram-positive selective antimicrobial peptide isolated from Pachymedusa dacnicolor skin” (PLoS ONE, 2018).
Converted amounts (≈) assume the structure as drawn. Residues, ends and D or L forms follow the SMILES beside them.

Assays:
E. faecalis ATCC 29212 = type: cell-based, Enterococcus faecalis
Description: (§1) Gram-negative bacterial strains, Escherichia coli ATCC 8739, Escherichia coli ATCC 35218, Escherichia coli ML 35p, Escherichia coli K12, Pseudomonas aeruginosa ATCC 27853, and Gram-positive bacterial strains, Enterococcus faecalis ATCC29212, Kocuria rhizophila ATCC 9341, Staphylococcus aureus ATCC 6538, Staphylococcus aureus ATCC 29213, Staphylococcus aureus ST 1065, Staphylococcus epidermidis BM 3302, and Bacillus subtilis subsp. subtilis CIP 52.65, as well as two multiresistant strains (Staphylococcus aureus DAR 5829 (http://www.ncbi.nlm.nih.gov/bioproject/228435) and Enterococcus faecium BM 4147 [20] were cultured as described previously. The minimal inhibitory concentration (MIC) of the peptides was determined by the microtiter broth dilution method. Overnight precultures were subcultured in Luria Bertani (LB) medium at 37°C with vigorous shaking until mid-log phase (~2h) and diluted to 10^7 cfu/mL. Peptide solutions were prepared at different concentrations (from 2 to 500 μM) by successive 2-fold dilutions in water from 1 mM stock solutions. In each row of a 96-well nonbinding surface plate, 90 μL of bacteria were incubated with 10 μL of peptide solutions for 18 h at 37°C. The final peptide concentrations ranged from 0.2 to 100 μM. Cell growth was evaluated by visual inspection and absorbance at 600 nm to determine the lowest concentration of peptide that prevented cell growth. Wells were either opaque, indicating stationary phase growth, or transparent indicating no growth. The lowest concentration showing no visible growth was considered as the MIC. After measurement of the MIC, the bactericidal activity was determined by the addition of resazurin dye (30 μL, 0.01% w/v) to each well [22]. The plates were further incubated at 37°C for 18 h. Wells in which the dye turned pink indicated live bacteria, whereas wells in which the dye remained blue indicated dead bacteria. The minimal bactericidal concentration (MBC) is the lowest concentration with blue coloration (99.9% of bacteria were killed). Three to five independent assays were performed in triplicate. Positive controls correspond to medium plus 0.2% formaldehyde and negative controls to medium without peptide.

S. aureus ATCC 6538 = type: cell-based, Staphylococcus aureus
Description: as §1

S. aureus ATCC 29213 = type: cell-based, Staphylococcus aureus
Description: as §1

S. aureus ST 1065 = type: cell-based, Staphylococcus aureus
Description: as §1

S. aureus DAR 5829 = type: cell-based, Staphylococcus aureus; conditions: S. aureus DAR 5829, multi-resistant strain
Description: as §1

[1] = system: Ps. aeruginosa ATCC 27853; type: cell-based, Pseudomonas aeruginosa; conditions: LB, 10^7 cfu/mL, 18 h at 37°C, peptide 0.2-100 μM, averaged over >=3 independent experiments in triplicate
Description: as §1, with “Wells were either opaque, indicating stationary phase growth, or transparent indicating no growth. The lowest concentration showing no visible growth was considered as the MIC. After measurement of the MIC, the bactericidal activity was determined by the addition of resazurin dye (30 μL, 0.01% w/v) to each well [22]. The plates were further incubated at 37°C for 18 h. Wells in which the dye turned pink indicated live bacteria, whereas wells in which the dye remained blue indicated dead bacteria. The minimal bactericidal concentration (MBC) is the lowest concentration with blue coloration (99.9% of bacteria were killed). Three to five independent assays were performed in triplicate. Positive controls correspond to medium plus 0.2% formaldehyde and negative controls to medium without peptide.” left out

S. epidermidis BM3302 = type: cell-based, Staphylococcus epidermidis
Description: as §1

K. rhizophila ATCC 9341 = type: cell-based, Kocuria rhizophila
Description: as §1

A549 cells = assay: Cytotoxicity, trypan blue exclusion; type: cell-based; conditions: A549 human lung carcinoma cells, 2-hour incubation at 37°C, 5% CO2, concentrations as high as 100 μM; 3 independent experiments in triplicate
Method: A549 cells (ATCC CCL-185), a human lung carcinoma cell line, were cultivated at 37°C, humid atmosphere and 5% CO2, in Petri dishes with DMEM Advanced medium (Gibco) supplemented with 5% of fetal bovine serum (FBS), 2 mM of glutamine, 100 U of penicillin and 50 μg/mL of streptomycin (Gibco). When the cells reached 80% confluence, the medium was discarded and the cells were washed with PBS 1×, before being treated with Trypsin 1× for 2 minutes to detach them form the culture dish. Cells were then resuspended in DMEM medium, seeded in a 48-well culture plate (500 000 cells/well), and either form of DMS-DA6 solubilized in PBS 1× was added and incubated for 2 hours at 37°C, 5% CO2. DMSO 30% was used as a positive control to induce cell death, and DMEM medium as negative control. After incubation, cell viability was assessed by trypan blue exclusion.

E. faecium BM 4147 = type: cell-based, Enterococcus faecium; conditions: E. faecium BM 4147, multi-resistant strain
Description: as §1

E. coli ML 35p = type: cell-based, Escherichia coli; conditions: LB, 10^7 cfu/mL, 18 h at 37°C, peptide 0.2-100 μM, averaged over >=3 independent experiments in triplicate
Description: as §1

E. coli ATCC 35218 = type: cell-based, Escherichia coli; conditions: LB, 10^7 cfu/mL, 18 h at 37°C, peptide 0.2-100 μM, averaged over >=3 independent experiments in triplicate
Description: as §1

E. coli ATCC 8739 = type: cell-based, Escherichia coli
Description: as §1

E. coli K12 = type: cell-based, Escherichia coli; conditions: LB, 10^7 cfu/mL, 18 h at 37°C, peptide 0.2-100 μM, averaged over >=3 independent experiments in triplicate
Description: as §1

B. subtilis CIP 52.65 = type: cell-based, Bacillus subtilis subsp. subtilis
Description: as §1

[2] = LB, 10^7 cfu/mL, 18 h at 37°C, averaged over >=3 independent experiments in triplicate
[3] = resazurin dye added after MIC, further 18 h at 37°C, 99.9% killed, averaged over >=3 experiments in triplicate

Q: Which MIC (E. faecalis ATCC 29212; [2]) does the source give for `CC[C@H](C)[C@H](NC(=O)CNC(=O)[C@H](Cc1c[nH]c2ccccc12)NC(=O)[C@@H](NC(=O)CN)C(C)C)C(=O)N[C@@H](C)C(=O)N[C@@H](CCCCN)C(=O)N[C@H](C(=O)N[C@@H](C)C(=O)NCC(=O)N[C@@H](CCCCN)C(=O)N[C@H](C(=O)N[C@@H](CC(C)C)C(=O)NCC(=O)N[C@@H](CC(N)=O)C(=O)N[C@H](C(=O)N[C@@H](CC(C)C)C(=O)N1CCC[C@H]1C(=O)N[C@@H](Cc1c[nH]cn1)C(=O)N[C@H](C(=O)N[C@@H](Cc1ccccc1)C(=O)N[C@@H](CO)C(=O)N[C@@H](CO)C(=O)N[C@@H](CC(N)=O)C(=O)N[C@@H](CCC(N)=O)C(=O)N[C@@H](CO)C(=O)O)C(C)C)[C@@H](C)CC)C(C)C)[C@@H](C)CC` [DMS-DA6-OH] (H-GVWGIAKIAGKVLGNILPHVFSSNQS-OH) here?
A: 100 µM (≈ 269 µg/mL)

Q: And the MBC (E. faecalis ATCC 29212; [3])?
A: 100 µM (≈ 269 µg/mL)

Q: What about the MIC (S. aureus ATCC 6538; [2]) of the same compound?
A: 12.5 µM (≈ 33.7 µg/mL)

Q: And the MBC (S. aureus ATCC 6538; [3])?
A: 12.5 µM (≈ 33.7 µg/mL)

Q: What about the MIC (S. aureus ATCC 29213; [2]) of the same compound?
A: 6.25 µM (≈ 16.8 µg/mL)

Q: And the MBC (S. aureus ATCC 29213; [3])?
A: 25 µM (≈ 67.3 µg/mL)

Q: And the MIC (S. aureus ST 1065; [2])?
A: 25 µM (≈ 67.3 µg/mL)

Q: And the MBC (S. aureus ST 1065; [3])?
A: 25 µM (≈ 67.3 µg/mL)

Q: And the MIC (S. aureus DAR 5829; [2])?
A: 50 µM (≈ 135 µg/mL)

Q: And the MBC (S. aureus DAR 5829; [3])?
A: 50 µM (≈ 135 µg/mL)

Q: What about the MIC [1] of the same compound?
A: >100 µM

Q: What about the MIC (S. epidermidis BM3302; [2]) of the same compound?
A: 25 µM (≈ 67.3 µg/mL)

Q: What about the MBC (S. epidermidis BM3302; [3]) of the same compound?
A: 25 µM (≈ 67.3 µg/mL)

Q: And the intact peptide remaining?
A: > 90%

Q: And the MIC (K. rhizophila ATCC 9341; [2])?
A: 6.25 µM (≈ 16.8 µg/mL)

Q: And the MBC (K. rhizophila ATCC 9341; [3])?
A: 12.5 µM (≈ 33.7 µg/mL)

Q: What about the “death of A549 cells (trypan blue exclusion)” value (A549 cells) of the same compound?
A: neither DMS-DA6-OH (net charge +2) nor DMS-DA6-NH2 (net charge +3) resulted in the death

Q: And the MIC (E. faecium BM 4147; [2])?
A: 50 µM (≈ 135 µg/mL)

Q: And the MBC (E. faecium BM 4147; [3])?
A: 100 µM (≈ 269 µg/mL)

Q: What about the MIC (E. coli ML 35p) of the same compound?
A: >100 µM

Q: And the MIC (E. coli ATCC 35218)?
A: >100 µM

Q: What about the MIC (E. coli ATCC 8739; [2]) of the same compound?
A: 50 µM (≈ 135 µg/mL)

Q: And the MBC (E. coli ATCC 8739; [3])?
A: 100 µM (≈ 269 µg/mL)

Q: What about the MIC (E. coli K12) of the same compound?
A: >100 µM

Q: What about the MIC (B. subtilis CIP 52.65; [2]) of the same compound?
A: 12.5 µM (≈ 33.7 µg/mL)

Q: And the MBC (B. subtilis CIP 52.65; [3])?
A: 12.5 µM (≈ 33.7 µg/mL)
